Key:
[1] = tested on: hyperuricemia mice; test: Pharmacodynamic test of hyperuricemia; format: in vivo
Protocol: Kunming male mice, weighing 24±2 g, are randomly divided into several groups, use i, g, once every day for 4 days, wherein the dosages administered to the saline group and the hyperuricemia model blank group are […] every day. IP potassium oxide hydrochloride for every hyperuricemia model blank group at 2 hours before blood sampling, and IP potassium oxide hydrochloride for test model group at 1 hour before the last using. At 2 hours after the last using, sample blood from the venous plexus behind the animal orbit to test the serum uric acid level.

[2] = tested on: Kunming mice; test: Pharmacodynamic test of the cough-relieving effect (ammonia-induced cough); format: in vivo; conditions: 1 hour after administering, control: codeine phosphate 4 mg/kg by gavage, test: hung
Protocol: 60 kunming mice, in half respectively male and female and weighing from 18 g to 20 g, are randomly divided into 5 groups based on the weight, each group comprises 12 rice. […] suspension agent is hung in the test group. Codeine phosphate with a dosage of 4 mg/kg is administered to the control group by gavage.
For the above two groups, at 1 hour after administering, absorb 0.2 ml ammonia (with a concentration of 25%-28%) by 1 ml injector and inject the ammonia into the tampon with the same weight thereof, and then quickly put the injected tampon together with the white rice into an inverse 500 ml beaker, and then record the number of animal coughing within 3 minutes. The obvious decrease of cough frequency is regarded as the index of the antitussive effect.

[3] = tested on: patients with diabetes; test: Clinical curative effect of DHD on diabetes (diabetes kidney disease patients); format: in vivo, human; set-up: Blood glucose at 2 hours after the meal / Fasting blood glucose (FBG): unit not given here
From the text: 1. The standard of selecting patients: All patients with diabetes are in accordance with WHO diabetes diagnostic criteria. Select 18 cases of urine protein, renal function and two groups with the matching developing speeds of renal function injury within one year from diabetes kidney disease patients (DN). […] Once patients are selected, other drugs related to sugar, fat metabolism are stopped administering, diet control and proper exercise therapy are continued. Test fasting blood glucose and blood glucose at 2 hours after the meal every week. After stabilizing the blood glucose, experimental treatment is performed, the treatment group uses DHD, once every day, four hours every time. […] 3. Results: By statistic treatment, clinical curative effects between the two groups are tested by Ridit, and observation indexes between the two groups and within every group before and after treatment are tested by t-test. Marked: […] Effective: […]

[4] = tested on: gastric and duodenal ulcer patients; test: Clinical observation of NHD on gastric and duodenal ulcer patients; format: in vivo, human
Protocol: 1. Case selection: Selected 80 inpatients are in accordance with gastric and duodenal ulcer diagnostic criteria. The inpatients are randomly divided into two groups. […] 2. Method of treatment: […] The course of treatment is one month. After two months, review by gastroscopy. Omeprazole is used in the control group by oral administration once every day, one piece every time (20 mg), the course of treatment is the same. 3. Observation items: ulcer surface (regarding results tested by gastroscope as standard), partial clinical symptoms (such as abdominal pain and acid reflux) 4. Curative effect evaluation standard: referring to Chinese national diagnostic curative effect standard.

[5] = tested on: male Prostatic hyperplasia patients; test: Clinical curative effects of PHD on male Prostatic hyperplasia; format: in vivo, human
From the text: Case selection: 72 patients, male, wherein 53 cases with the age of 60-69 years old, 16 cases with the age of 70-79 years old, 3 cases with the age of 80-89 years old. The longest course of disease is 11 years, the shortest is 3 months. There are 6 cases with the course of disease smaller than one year, 48 cases with the course of disease in the range of 1-4 years, 14 cases with the course of disease in the range of 5-10 years, 4 cases with the course of disease bigger than 10 years. There are 12 cases with prostate enlargement I-degree, 44 cases with prostate enlargement II-degree, and 16 cases with prostate enlargement III-degree. There are 4 cases integrated with bladder stones, and 6 cases with urinary infection.
Observation method: based on the ages of patients, course of disease and state of illness, patients are divided into two groups.
(1) The control group comprises 36 patients, administered with finasteride tablet, one every time, one time every day, oral administration.
(2) The treatment group comprises 36 patients, administered with PHD, four hours every time, one time every day, hanging.
Observe patients' symptoms before and after administration which mainly includes frequent urination at night, difficult urinating, urination becoming thinner, drop after urination, micturition pain, and urgent urination. No, light, medium, heavy symptoms are scored 0, 1, 2, 3 respectively. Observe integral changes before and after treatment. Rectal touch and B ultra examination are made to observe the recovery condition of prostate enlargement.
Based on the ratio of the integral difference of local symptom before administration to that after administration and the condition of prostate recovery, curative effects are evaluated. If healing, the integral ratio is 1, and prostate enlargement is back to normal. […] If effective, the integral ratio is in the range of ⅔ to ⅓, and prostate enlargement is improved. If invalid, the integral ration is smaller than ⅓, and prostate enlargement has no change.

[6] = 12 weeks, DHD versus Gliquidone
[7] = of healed cases (14 NHD, 6 Omeprazole), time unit not given
[8] = treat group 50 cases NHD, control group 30 cases Omeprazole 20 mg oral
[9] = 36 cases per group, PHD versus finasteride tablet

Question: Which “Serum uric acid level of mice (mg/100 ml)” value ([1]; hyperuricemia mice, 2 hours after the last using, 4 days, Allopurinol dosage 10) does the source give for Oc1ncnc2[nH]ncc12 [Allopurinol] here?
Answer: 7.46 ± 0.17 mg/100 ml

Question: What about the “effect on serum uric acid level of normal mice” value ([1]; normal mice, in words) of the same compound?
Answer: can reduce the serum uric acid level of normal mice

Question: Which results are given for COc1ccc2c3c1O[C@H]1[C@@H](O)C=C[C@H]4[C@@H](C2)N(C)CC[C@@]341 [Codeine phosphate]?
Answer: inhibition at 4 mg/kg ([2]; Mus musculus, po, read-out: Cough inhibition Rate (%)): 67.3%; Cough Frequency ([2]; number of coughing within 3 minutes): 11.2 ± 4.8

Question: Which “Blood glucose at 2 hours after the meal: Effective (cases)” value [3, 6] does the source give for COc1ccc2c(c1)C(=O)N(CCc1ccc(S(=O)(=O)NC(=O)NC3CCCCC3)cc1)C(=O)C2(C)C [Gliquidone] here?
Answer: 6

Question: What about the “Blood glucose at 2 hours after the meal: Invalid (cases)” value [3, 6] of the same compound?
Answer: 0

Question: What about the “Blood glucose at 2 hours after the meal: Marked (cases)” value [3, 6] of the same compound?
Answer: 4

Question: And the “Blood glucose at 2 hours after the meal: Total efficient rate” value [3, 6]?
Answer: 100.0

Question: And the “Fasting blood glucose (FBG): Effective (cases)” value [3, 6]?
Answer: 6

Question: And the “Fasting blood glucose (FBG): Invalid (cases)” value [3, 6]?
Answer: 1

Question: And the “Fasting blood glucose (FBG): Total efficient rate” value [3, 6]?
Answer: 90.0

Question: What about the “Fasting blood glucose (FBG): Marked (cases)” value ([3]; 12 weeks, treatment group DHD four hours/day, control group Gliquidone 30 mg increased to 90 mg) of the same compound?
Answer: 3

Question: And the “Blood glucose at 2 hours after the meal” value ([3]; After treating 2 weeks)?
Answer: 17.48

Question: And the “Fasting blood glucose (FBG)” value ([3]; After treating 2 weeks)?
Answer: 9.99

Question: And the “Blood glucose at 2 hours after the meal” value ([3]; After treating 4 weeks)?
Answer: 12.77

Question: And the “Fasting blood glucose (FBG)” value ([3]; After treating 4 weeks)?
Answer: 9.27

Question: And the “Blood glucose at 2 hours after the meal” value ([3]; After treating 8 weeks)?
Answer: 10.07

Question: And the “Fasting blood glucose (FBG)” value ([3]; After treating 8 weeks)?
Answer: 8.43

Question: And the “BUN” value ([3]; After treating (12 weeks))?
Answer: 9.2 ± 0.6 mmol/L

Question: And the “Blood glucose at 2 hours after the meal” value ([3]; After treating (12 weeks))?
Answer: 9.21

Question: And the “Fasting blood glucose (FBG)” value ([3]; After treating (12 weeks))?
Answer: 7.62

Question: What about the “Scr” value ([3]; After treating (12 weeks)) of the same compound?
Answer: 250.9 ± 49.3 µmol/L

Question: And the Urine protein ([3]; After treating (12 weeks))?
Answer: 6.0 ± 2.7

Question: What about the “BUN” value ([3]; Before treating) of the same compound?
Answer: 9.5 ± 0.7 mmol/L

Question: What about the “Blood glucose at 2 hours after the meal” value ([3]; Before treating) of the same compound?
Answer: 14.79

Question: What about the “Fasting blood glucose (FBG)” value ([3]; Before treating) of the same compound?
Answer: 10.72

Question: What about the “Scr” value ([3]; Before treating) of the same compound?
Answer: 251.3 ± 54.6 µmol/L

Question: What about the Urine protein ([3]; Before treating) of the same compound?
Answer: 6.2 ± 2.5

Question: For COc1ccc2[nH]c([S+]([O-])Cc3ncc(C)c(OC)c3C)nc2c1 (centres unmarked) [Omeprazole], which “needed time for curing diseases: cases healed at course of treatment 6” value [4, 7] is on record?
Answer: 0

Question: And the “needed time for curing diseases: cases healed at course of treatment 7” value [4, 7]?
Answer: 0

Question: And the “needed time for curing diseases: cases healed at course of treatment 8” value [4, 7]?
Answer: 2

Question: And the “needed time for curing diseases: cases healed at course of treatment 9” value [4, 7]?
Answer: 4

Question: What about the “Healing (cases)” value ([4]; treat group 50 cases NHD hung 5 hours/day, control group 30 cases Omeprazole 20 mg oral once daily) of the same compound?
Answer: 6

Question: What about the “Invalid effect (cases)” value [4, 8] of the same compound?
Answer: 5

Question: What about the “Marked effect (cases)” value [4, 8] of the same compound?
Answer: 6

Question: What about the “Total efficient rate (%)” value [4, 8] of the same compound?
Answer: 83.3%

Question: And the “Turning better (cases)” value [4, 8]?
Answer: 13

Question: Which “Effective (cases)” value [5, 9] does the source give for CC(C)(C)NC(=O)[C@H]1CC[C@H]2[C@@H]3CC[C@H]4NC(=O)C=C[C@]4(C)[C@H]3CC[C@]12C [finasteride tablet, finasteride] here?
Answer: 6

Question: And the “Invalid (cases)” value [5, 9]?
Answer: 16

Question: What about the “Marked (cases)” value [5, 9] of the same compound?
Answer: 10

Question: What about the Total efficient rate [5, 9] of the same compound?
Answer: 52.78%

Question: What about the total effective cases [5, 9] of the same compound?
Answer: 26 cases

Question: What about the “Healing (cases)” value ([5]; 36 cases per group, treatment PHD hung four hours daily, control finasteride tablet oral once daily) of the same compound?
Answer: 4

Question: What about the “Integral values of local symptoms before and after administration” value ([5]; in words, control P>0.05, treatment P<0.001) of the same compound?
Answer: significant differences
